Data: the supplement of paper PMC9386025

Key:
Assay in all cases: drug sensitivity score (DSS) (DSS (dimensionless)); higher = more sensitive (stronger drug response)
FIMM-PDC6 = patient-derived ovarian cancer cells; conditions: genetic perturbation: none (patient-derived cell culture)
Outline: (§1)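 Ovarian cancer cell lines with shRNA induced by 100 ng/ml doxycycline for at least three days, along with patient-derived cultures, were seeded at 1 000 – 1 500 cells per well onto drugs pre-plated in 384-well plates at five concentrations over a 10,000-fold range and incubated for three days at 37 °C and 5.0 % CO2. CellTiter-Glo luminescence measured on a PHERAstar FS served as the viability readout, and each drug's dose-response curve was summarised as a drug sensitivity score following an earlier published method.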

FIMM-PDC1 = patient-derived ovarian cancer cells; conditions: genetic perturbation: none (patient-derived cell culture)
Outline: as §1

JHOS2 = test system: JHOS2
Outline: as §1

Kuramochi = test system: Kuramochi
Outline: as §1

FIMM-PDC4 = patient-derived ovarian cancer cells; conditions: genetic perturbation: none (patient-derived cell culture)
Outline: as §1

FIMM-PDC3 = patient-derived ovarian cancer cells; conditions: genetic perturbation: none (patient-derived cell culture)
Outline: as §1

FIMM-PDC5 = patient-derived ovarian cancer cells; conditions: genetic perturbation: none (patient-derived cell culture)
Outline: as §1

FIMM-PDC7 = patient-derived ovarian cancer cells; conditions: genetic perturbation: none (patient-derived cell culture)
Outline: as §1

OVSAHO = test system: OVSAHO
Outline: as §1

[1] = genetic perturbation: DOX-induced PTK7 shRNA knockdown
[2] = genetic perturbation: DOX-induced control shRNA

SMILES | drug sensitivity score (FIMM-PDC6) | drug sensitivity score (FIMM-PDC1) | drug sensitivity score (JHOS2; [1]) | drug sensitivity score (JHOS2; [2]) | drug sensitivity score (Kuramochi; [1]) | drug sensitivity score (Kuramochi; [2]) | drug sensitivity score (FIMM-PDC4) | drug sensitivity score (FIMM-PDC3) | drug sensitivity score (FIMM-PDC5) | drug sensitivity score (FIMM-PDC7) | drug sensitivity score (OVSAHO; [1]) | drug sensitivity score (OVSAHO; [2])
CCNC(=O)C[C@@H]1N=C(c2ccc(Cl)cc2)c2cc(OC)ccc2-n2c(C)nnc21 [Molibresib] | 4.2 | 1.7 | 6.8 | 5.3 | 8.65 | 4 | 3.3 | 3.5 | 7.6 | 6.6 | 6 | 9.4
COc1cccc(OCCCN)c1-c1cc(Nc2cnc(C#N)cn2)n[nH]1 [Prexasertib] | 15.4 | 22.6 | 23.3 | 7.3 | 22.4 | 8.8 | 19.2 | 27.1 | 24.3 | 14.3 | 17.4 | 11.1
CNC(=O)CN1CCC(Oc2cc3c(Nc4cccc(Cl)c4F)ncnc3cc2OC)CC1 [Sapitinib] | 11.4 | 0.6 | < 0 | < 0 | 0.5 | < 0 | 16.3 | 8.8 | 16.5 | 10.1 | < 0 | < 0
CN1CCN(C2CCC(n3cc(-c4ccc(Oc5ccccc5)cc4)c4c(N)ncnc43)CC2)CC1 (stereo unspecified) | 14.7 | 5.85 | 9.9 | 11.5 | 16.8 | 12 | 18.6 | 14.6 | 18.4 | 7 | 18.9 | 10.8
COC[C@H](NC(=O)c1cnc(C)s1)C(=O)N[C@@H](COC)C(=O)N[C@@H](Cc1ccccc1)C(=O)[C@@]1(C)CO1 [Oprozomib] | 24.9 | 19.5 | 23.6 | 17 | 12.6 | 18.3 | 15.9 | 23.6 | 11.6 | 19 | 17.3 | 10.2
O=C(Nc1ccncc1)C(=O)c1cn(Cc2ccc(Cl)cc2)c2ccccc12 [Indibulin] | 6.5 | 8.6 | 6.4 | 4.5 | 5.8 | < 0 | 8.8 | 6 | 13.9 | 4.2 | 6.9 | 2.2
CC[C@@]1(O)C(=O)OCc2c1cc1n(c2=O)Cc2cc3c(CN(C)C)c(O)ccc3nc2-1 [Topotecan] | 12.8 | 10.3 | 10.5 | 11.5 | 6.85 | 6.4 | 7.8 | 12.4 | 14.4 | 12.2 | 8.7 | 7.5
CC1(C)CCC(c2ccc(Cl)cc2)=C(CN2CCN(c3ccc(C(=O)NS(=O)(=O)c4ccc(N[C@H](CCN5CCOCC5)CSc5ccccc5)c(S(=O)(=O)C(F)(F)F)c4)cc3)CC2)C1 [Navitoclax] | 21.9 | 4.85 | 1.1 | < 0 | 1.8 | 4.3 | 6.2 | 5.7 | 19.5 | 16.4 | 10.1 | < 0
C=CC(=O)N1CCC(Oc2cc3c(Nc4ccc(Cl)c(Cl)c4F)ncnc3cc2OC)CC1 [Poziotinib] | 21.2 | 3.5 | < 0 | < 0 | 0.95 | 1.4 | 22.9 | 16.4 | 27.2 | 16.1 | 2.6 | 0.3
Cn1cnc2c(F)c(Nc3ccc(Br)cc3Cl)c(C(=O)NOCCO)cc21 [Selumetinib] | 7.6 | < 0 | 0.7 | 8.6 | 7.5 | 2 | 10 | 4.9 | 11.4 | 10.3 | 13.5 | 1.7
Cc1ncc(-c2ccnc(Nc3ccc(S(C)(=O)=O)cc3)n2)n1C(C)C [AZD-5438] | 9.3 | 7.9 | 14.4 | 8.3 | 7.55 | 7.8 | 9.5 | 7.3 | 12.8 | 7.6 | 8.2 | 7
CC[C@H](CC#N)OC(=O)N[C@@H](C)c1cccc(NC(=O)Nc2ccc(-c3cnco3)c(OC)c2)c1 [AVN944] | 6.6 | 7.65 | 5.8 | 9.6 | 9.7 | 8.9 | 7.4 | 12 | 18.1 | 10 | 11.7 | 9.7
CCn1c(-c2nonc2N)nc2c(C#CC(C)(C)O)ncc(OC[C@H]3CCCNC3)c21 | 5.7 | 7.3 | < 0 | 0.5 | 0.9 | < 0 | 7.2 | 1.5 | 8.3 | 11.5 | < 0 | 4.8
COC(=O)C[C@](O)(CCCC(C)(C)O)C(=O)O[C@@H]1C(OC)=C[C@]23CCCN2CCc2cc4c(cc2[C@H]13)OCO4 [Omacetaxine] | 25.3 | 23.7 | 20.8 | 21.6 | 23.8 | 14.3 | 22.9 | 27.2 | 21.3 | 23.8 | 21.7 | 21.7
CC(C)NC[C@@H](C(=O)N1CCN(c2ncnc3c2[C@H](C)C[C@H]3O)CC1)c1ccc(Cl)cc1 [Ipatasertib] | 5.5 | 4.2 | < 0 | 1.3 | 0.35 | < 0 | 5.9 | 0.8 | 10.3 | 7.5 | < 0 | 4.6
COc1cc(NS(C)(=O)=O)ccc1Nc1c2ccccc2nc2ccccc12 [Amsacrine] | 3.9 | 4.55 | 3.3 | 4.4 | 1.25 | 1.4 | 5.1 | 6.3 | 5.8 | 4 | 5.3 | < 0
CCc1c2c(nc3ccc(O)cc13)-c1cc3c(c(=O)n1C2)COC(=O)[C@]3(O)CC [SN-38] | 28.9 | 23.5 | 26.1 | 22.5 | 21 | 8.6 | 19.2 | 26.6 | 29.7 | 21.3 | 21 | 16.4

SMILES | drug sensitivity score (FIMM-PDC6) | drug sensitivity score (FIMM-PDC1) | drug sensitivity score (JHOS2; [1]) | drug sensitivity score (JHOS2; [2]) | drug sensitivity score (Kuramochi; [1]) | drug sensitivity score (Kuramochi; [2]) | drug sensitivity score (FIMM-PDC4) | drug sensitivity score (FIMM-PDC3) | drug sensitivity score (FIMM-PDC5) | drug sensitivity score (FIMM-PDC7) | drug sensitivity score (OVSAHO; [1]) | drug sensitivity score (OVSAHO; [2])
CC(C)c1cc(-c2n[nH]c(=O)n2-c2ccc3c(ccn3C)c2)c(O)cc1O [Ganetespib] | 13.6 | 13.4 | 13.7 | 12.5 | 11.1 | 1.9 | 19.5 | 12.9 | 14.3 | 14 | < 0 | 10.8
COc1ccc(-c2ccc3c(N4CCOC[C@@H]4C)nc(N4CCOC[C@@H]4C)nc3n2)cc1CO [AZD8055] | 21.8 | 13.9 | 11.8 | 17 | 15.9 | 16.8 | 21.2 | 12.9 | 29.2 | 25.7 | 20.7 | 19
Cc1cnc(Nc2ccc(OCCN3CCCC3)cc2)nc1Nc1cccc(S(=O)(=O)NC(C)(C)C)c1 [Fedratinib] | 3 | 3.65 | 8.5 | 9.1 | 8.8 | 8.7 | 7 | 4.3 | 10.7 | 2.9 | 7.2 | 8.8
COc1ccccc1S(=O)(=O)Nc1ccc2c(c1)CN(C)C(=O)N2 [PFI-1] | 1.3 | 1.2 | 2.1 | 3.4 | 7.65 | 5 | 0.9 | 1.6 | 4.9 | 1.3 | 4.4 | 8.4
CCS(=O)(=O)N1CCN(c2ccc(Nc3ncc(C(N)=O)c(NC4CC4)n3)cc2)CC1 [Cerdulatinib] | < 0 | < 0 | 8.2 | < 0 | < 0 | < 0 | < 0 | < 0 | < 0 | 5.3 | < 0 | < 0
CO[C@@H]1[C@H](N(C)C(=O)c2ccccc2)C[C@H]2O[C@]1(C)n1c3ccccc3c3c4c(c5c6ccccc6n2c5c31)C(=O)NC4 [Midostaurin] | 7.8 | 8.1 | 13.1 | 10.7 | 9 | 8.9 | 15.7 | 5.5 | 17.8 | 10.3 | 13.1 | 7.9
NC(=O)/C(=C/n1cnc(-c2cc(C(F)(F)F)cc(C(F)(F)F)c2)n1)c1cncnc1 [Eltanexor] | 25.8 | 14.7 | 18.9 | 17 | 12.4 | 17 | 19.9 | 23.7 | 22.4 | 17.8 | 17.8 | 9.5
COc1ccc(S(=O)(=O)Nc2cccnc2Nc2ccc(O)cc2)cc1 [ABT-751] | 5.1 | 8.8 | 10.2 | 6.3 | 7.95 | 3.6 | 9.6 | 9.7 | 11.8 | 6.8 | 7 | 5.4
Cn1c(Nc2ccc(C(F)(F)F)cc2)nc2cc(Oc3ccnc(-c4ncc(C(F)(F)F)[nH]4)c3)ccc21 [NVP-RAF265] | 1.3 | 1.4 | < 0 | 3.8 | 0.1 | < 0 | 2.9 | 6.7 | 14.6 | 2.8 | 1.5 | 0.3
CC(C)C[C@@H](C(=O)N[C@H](C(=O)OC1CCCC1)c1ccccc1)[C@H](O)C(=O)NO [Tosedostat] | 11.1 | 12.6 | 29.8 | 14.2 | 0.75 | 0.7 | 9.5 | 14.9 | 12.1 | 6.4 | 3.1 | 6.4
Nc1ccccc1NC(=O)c1ccc(CNC(=O)OCc2cccnc2)cc1 [Entinostat] | 6.6 | 7.1 | 4.5 | 2.5 | 8.05 | 2.3 | 4.5 | 9 | 8.2 | 6.5 | 8.5 | 4.6
Nc1nc2[nH]cc(CCc3ccc(C(=O)N[C@@H](CCC(=O)O)C(=O)O)cc3)c2c(=O)[nH]1 [Pemetrexed] | 1.5 | 2.05 | 0.4 | < 0 | 0.6 | 7.9 | < 0 | < 0 | < 0 | < 0 | < 0 | 1.5
COc1cccc2c1C(=O)c1c(O)c3c(c(O)c1C2=O)C[C@@](O)(/C(CO)=N/NC(=O)CCCCCN1C(=O)C=CC1=O)C[C@@H]3O[C@H]1C[C@H](N)[C@H](O)[C@H](C)O1 [Aldoxorubicin] | 7 | 5.7 | 7.9 | 7.4 | 5.45 | 4.9 | 8.5 | 7.4 | 6.6 | 8.4 | 7.9 | 5.1
Cn1cc(C2=Nc3cc(NC(=O)C(N)C4CCCCC4)cc4c3C2=CNNC4=O)cn1 (stereo unspecified) | 6.4 | 12.8 | 4.7 | 4.9 | 7.35 | 3.5 | 6.2 | 16.4 | 10.7 | 6.8 | 9.2 | 5.1
CCOc1cc2ncc(C#N)c(Nc3ccc(OCc4ccccn4)c(Cl)c3)c2cc1NC(=O)/C=C/CN(C)C [Neratinib] | 14.1 | 1.15 | 0.6 | 5.2 | 0.45 | < 0 | 11.9 | 9.5 | 16.1 | 8.3 | 0.8 | 0.4
CC(C)Oc1ccc(C(=O)N[C@H](CNC(=O)CN(C)C)Cc2ccc(-c3cn4cccc([C@H](C)O)c4n3)cc2)cc1Cl | 0.2 | 12.7 | 8.9 | 6.4 | 15.1 | 2.5 | 6 | 11.9 | 14.9 | 4.2 | 7.7 | 9.5
